Experimental findings from patent US9593305B2, “Differentiation of pluripotent stem cells” (Janssen Biotech, Inc., priority 2008, dated 2017) are described below.

The assay deals with H1 human embryonic stem cells. Description: Step-wise differentiation, FACS for CXCR4 after step 1 (Example 16). The settings on record: 100 ng/ml GDF-8 with compound on first day, compared to activin A and Wnt3a. The class given is cell-based. The protocol:
The assay was initiated by aspirating the culture medium from each well and adding back an aliquot (0.5 ml) of test medium. Test conditions for the first step of differentiation were conducted over a three-day period, feeding daily by aspirating and replacing the medium from each well with fresh test medium. On the first day of assay, 100 ng/ml activin A (PeproTech; Cat #120-14) or 100 ng/ml GDF-8 (R&D Systems, Cat #788-G8) was added to respective assay wells where each growth factor was diluted into RPMI-1640 medium (Invitrogen; Cat #: 22400) with 2% Albumin Bovine Fraction V, Fatty Acid Free (FAF BSA) (Proliant Inc. Cat #: SKU 68700), and 20 ng/ml Wnt3a (R&D Systems; Cat #1324-WN/CF). On the second day of assay, 100 ng/ml activin A or 100 ng/ml GDF-8 was diluted into RPMI-1640 medium supplemented with 2% FAF BSA without Wnt3a. In some test samples using GDF-8, Wnt3a was replaced with a small molecule compound, added only on the first day of definitive endoderm differentiation. These small molecules included Compound 19 (2.5 μM in assay), Compound 202 (2.5 μM in assay), Compound 40 (2.5 μM in assay), or a commercially available GSK3 inhibitor BIO (0.5 μM in assay) (EMD Chemicals, Inc.; Cat #361550). At the conclusion of the first step of differentiation, cells from some wells were harvested for flow cytometry analysis to evaluate levels of CXCR4, a marker of definitive endoderm formation. Additional wells were harvested for RT-PCR analysis to measure other markers of differentiation.
Cells for FACS analysis were blocked in a 1:5 solution of 0.5% human gamma-globulin (Sigma; Cat#G-4386) in PBS (Invitrogen; Cat #14040-133): BD FACS staining buffer—BSA (BD; Cat #554657) for 15 minutes at 4° C. Cells were then stained with antibodies for CD9 PE (BD; Cat #555372), CD99 PE (Caltag; #MHCD9904) and CXCR4 APC(R&D Systems; Cat#FAB 173A) for 30 minutes at 4° C. After a series of washes in BD FACS staining buffer, the cells were stained for viability with 7-AAD (BD; Cat #559925) and run on a BD FACSArray. […]

As for `CN1CCC(=O)NCCCc2cncc(c2)-c2ncnc(n2)Nc2cccc(c2)C1` [Compound 19, 14-Methyl-3,5,7,14,18,24,28-heptaazatetracyclo[20.3.1.1˜2,6˜0.1˜8,12˜]octacosa-1(26), 2(28), 3,5,8(27), 9,11,22,24-nonaen-17-one], the “percentage of CXCR4 positive cells after step 1” value is on record as “equivalent or slightly higher percentage of CXCR4 positive cells”.

Regarding `C=CCN1CC(=O)NCCCc2cncc(c2)-c2ncnc(n2)Nc2cccc(c2)C1` [Compound 40, 14-Prop-2-en-1-yl-3,5,7,14,17,23,27-heptaazatetracyclo[19.3.1.1˜2.6˜0.1˜8,12˜]heptacosa-1(25), 2(27), 3,5,8(26), 9,11,21,23-nonaen-16-one], the “percentage of CXCR4 positive cells after step 1” value is “equivalent or slightly higher percentage of CXCR4 positive cells”.
